Measured values taken from PMC11876601 (Molecular Systems Biology, 2025).
Several values for one entry are separate records, joined by “and”; a condition that tells them apart may be missing. Identical values can stand only once. Like-named read-outs stand apart in the source and are kept apart here.

Legend:
PDO UME053 = experiment: PDO viability assay (CellTiter-Glo, 72 h); format: cell-based, human; parameters: Curve top / Curve bottom: scale not given here;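 for Curve top: fraction of plate-wise median vehicle signal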
Method: Primary patient-derived PDAC organoid (PDO) experiments were performed in the laboratories of Prof. Maximilian Reichert (University Hospital of the TU Munich, Germany, PDO set 1: B250, B535, B678) and Prof. Jens T. Siveke (University Hospital Essen, Germany; PDO set 2: UME008, UME012, UME051, UME053, UME060, UME061). PDOs were generated from surgical resection, EUS-guided fine needle biopsy (EUS-FNB), or ascites (Appendix Table S2). Surgical specimens were first minced with a sterile scalpel and subsequently washed with Anti-Anti solution and washing medium (PDO set 1), or vice versa (PDO set 2; Appendix Table S3). Biopsy samples were directly washed with an Anti-Anti solution and washing medium. Samples were digested using 1 ml of digestion medium at 37 °C while shaking, and the enzymatic reaction was stopped by adding 15 ml of washing medium (Appendix Table S3). If samples of PDO set 1 were blood-stained, tissue pellets were first incubated with ACK lysing buffer/red blood cells lysis buffer (Thermo Fisher Scientific) for 5 min and then digested using TrypLE (Thermo Fisher Scientific). The reversed procedure was applied for blood-stained samples of PDO set 2. For PDO generation from ascites, the material was first spun down at 500 × g for 5 min. Then, washing medium was added and the suspension was centrifuged at 300 × g for 5 min. If the pellet was blood-stained, ACK lysis buffer was added and incubated at room temperature.
For viability assays in PDOs, confluent organoids were removed from medium, and Matrigel was dissolved by adding 200 μl (PDO set 1) or 2 ml (PDO set 2) of Cell Recovery Solution (Corning), and additionally 500 μl of DPBS (PDO set 1 only). Samples were transferred into a falcon and incubated on ice for 30 min, followed by centrifugation at 300 × g at 4 °C for 5 min (after adding 10 ml washing medium for PDO set 2). Subsequently, TrypLE Express Enzyme (Thermo Fisher) was added to cell pellets and incubated for 2 × 5 min at 37 °C. The enzymatic reaction was quenched by DPBS (PDO set 1) or washing medium (PDO set 2), and samples were washed by centrifugation at 300 × g at 4 °C for 5 min. Five hundred cells/well were seeded in 384-well plates (Corning) in 50 μl of PDO medium containing 10% Matrigel. To allow PDO generation, cells were incubated for 4 days at 37 °C and 5% CO2. […] Experiments were pipetted manually (PDO set 1) or automatically using a TECAN D300e Digital Dispenser (HP; PDO set 2). Treatments were performed in eight replicates, except for PDO PPES045 (quadruplicates). After 72 h, cell viability was measured using the CellTiter-Glo Luminescent Cell Viability Assay (Promega) diluted 1:5 in the final volume of the well. After 20 min of incubation at room temperature under gentle shaking, the acquisition was performed in the microplate reader VantaSTAR (BMG Labtech) using 3000 gain for the amplification measurement of a detected signal (PDO set 1) or the Spark Multimode microplate reader (TECAN) at 800 ms integration time (PDO set 2).

CDK5 = test system: CDK5; parameters: method as in Klaeger et al. (2017); conditions: lysate 4 cell line mix (Colo205, K-562, MV-4-11, and SK-N-BE(2)), Kinobeads y, ref Klaeger et al. (2017); cited from earlier work
MOB1A;MOB1B = test system: MOB1A;MOB1B; parameters: method as in Klaeger et al. (2017); conditions: 4 cell line mix lysate, Kinobeads y, ref Klaeger et al. (2017); cited from earlier work
AP2A1 = test system: AP2A1; parameters: method as in Klaeger et al. (2017); conditions: AP2A1, 4 cell line mix lysate, Kinobeads y, ref Klaeger et al. (2017); cited from earlier work
MAP4K5 = test system: MAP4K5; parameters: method as in Klaeger et al. (2017); conditions: MAP4K5, 4 cell line mix lysate, Kinobeads y, ref Klaeger et al. (2017); cited from earlier work
ABL1 = conditions: ABL1, 5 cell line mix lysate, Kinobeads ε, ref Reinecke et al. (2023), cited from earlier work
ULK1 = test system: ULK1; parameters: method as in Reinecke et al. (2023); conditions: ULK1, 5 cell line mix lysate, Kinobeads ε, ref Reinecke et al. (2023), cited from earlier work
JAK2 = test system: JAK2; parameters: method as in Reinecke et al. (2023); conditions: JAK2, 5 cell line mix lysate, Kinobeads ε, ref Reinecke et al. (2023), cited from earlier work
BUB1 = test system: BUB1; parameters: method as in Reinecke et al. (2023); conditions: BUB1, 5 cell line mix lysate, Kinobeads ε, ref Reinecke et al. (2023), cited from earlier work
[1] = PDO UME053, GEM + Elimusertib (ATRi) dose1, per replicate
[2] = PDO UME053, GEM + Elimusertib (ATRi) dose2, per replicate
[3] = PDO UME053, GEM + Elimusertib (ATRi) dose3, per replicate
[4] = PDO UME053, GEM alone, per replicate
[5] = PDO UME053, experiment GEM (GEM alone), curve fit

Nc1ccn([C@@H]2O[C@H](CO)[C@@H](O)C2(F)F)c(=O)n1 [GEM, Gemcitabine]
EC50 (PDO UME053; Homo sapiens, PDO UME053, GEM + Elimusertib (ATRi) dose1, mean of replicates, read-out: EC50 mean): 3.76 nM | EC50 (PDO UME053; Homo sapiens, PDO UME053, GEM + Elimusertib (ATRi) dose1, per replicate, read-out: EC50): 4.76 nM | EC50 (PDO UME053; Homo sapiens, PDO UME053, GEM + Elimusertib (ATRi) dose1, per replicate, read-out: pEC50 (converted)): 4.79 nM | EC50 (PDO UME053; Homo sapiens, PDO UME053, GEM + Elimusertib (ATRi) dose2, mean of replicates, read-out: EC50 mean): 2.48 nM | EC50 (PDO UME053; Homo sapiens, PDO UME053, GEM + Elimusertib (ATRi) dose3, mean of replicates, read-out: EC50 mean): 2.58 nM | EC50 (PDO UME053; Homo sapiens, PDO UME053, GEM alone, mean of replicates, read-out: EC50 mean): 3.83 nM | EC50 (PDO UME053; Homo sapiens, PDO UME053, GEM alone, per replicate, read-out: EC50): 4.9 nM | EC50 (PDO UME053; Homo sapiens, PDO UME053, GEM alone, per replicate, read-out: pEC50 (converted)): 4.9 nM | EC50 (PDO UME053; Homo sapiens, PDO UME053, GEM alone, read-out: EC50 mean): 3.8 nM | EC50 (PDO UME053; Homo sapiens, PDO UME053, experiment GEM (GEM alone), mean of replicates, read-out: EC50 mean): 3.83 nM | EC50 (PDO UME053; Homo sapiens, PDO UME053, experiment GEM (GEM alone), single replicates, read-out: pEC50 (converted)): 5.75 nM | EC50 (PDO UME053; Homo sapiens, SET-2, PDO UME053, PDO set 2, experiment GEM (GEM alone), single replicates, read-out: EC50): 5.76 nM | Curve bottom (PDO UME053; [1]): 4.76 and 3.51 and 3.42 and 4.59 and 3.68 and 3.05 | Curve slope (PDO UME053; [1]): -0.0232 and -0.0231 and -0.0214 and -0.0351 and 0.00541 and -0.00734 | Curve top (PDO UME053; [1]): 1.03 and 0.94 | pEC50 (PDO UME053; [1]): 8.45 and 8.47 and 8.34 and 8.43 and 8.52 | EC50 (PDO UME053; PDO UME053, GEM + Elimusertib (ATRi) dose1, per replicate, read-out: EC50): 3.51 nM and 3.42 nM and 4.59 nM and 3.68 nM and 3.05 nM | Curve bottom (PDO UME053; [2]): 3.13 and 3.73 and 2.51 and 1.19 and 1.27 | Curve slope (PDO UME053; [2]): -0.0242 and -0.026 and -0.0173 and -0.00205 and -0.00262 | Curve top (PDO UME053; [2]): 1.01 and 0.93 and 0.97 and 0.99 | pEC50 (PDO UME053; [2]): 8.50 and 8.43 and 8.60 and 8.92 and 8.90 | EC50 (PDO UME053; PDO UME053, GEM + Elimusertib (ATRi) dose2, per replicate, read-out: EC50): 3.13 nM and 3.73 nM and 2.51 nM and 1.19 nM and 1.27 nM | Curve bottom (PDO UME053; [3]): 2.72 and 2.86 and 2.18 and 1.18 and 1.85 | Curve slope (PDO UME053; [3]): -0.02 and -0.027 and -0.013 and -0.0115 | Curve top (PDO UME053; [3]): 0.85 and 0.95 and 0.90 | pEC50 (PDO UME053; [3]): 8.56 and 8.54 and 8.66 and 8.93 and 8.73 | EC50 (PDO UME053; PDO UME053, GEM + Elimusertib (ATRi) dose3, per replicate, read-out: EC50): 2.72 nM and 2.86 nM and 2.18 nM and 1.18 nM and 1.85 nM | Curve bottom (PDO UME053; [4]): 4.90 and 3.43 and 2.87 and 2.77 and 4.39 and 2.68 | Curve slope (PDO UME053; [4]): -0.0183 and 6.71e-5 and 0.00446 and -0.00144 and 0.00242 and 0.00525 | Curve top (PDO UME053; [4]): 1.30 and 1.34 | pEC50 (PDO UME053; [4]): 8.46 and 8.54 and 8.56 and 8.36 and 8.57 | EC50 (PDO UME053; PDO UME053, GEM alone, per replicate, read-out: EC50): 3.43 nM and 2.87 nM and 2.77 nM and 4.39 nM and 2.68 nM | EC50 (PDO UME053; PDO UME053, PDO set 2, experiment GEM (GEM alone), single replicates, read-out: EC50): 3.82 nM | Curve bottom (PDO UME053; [5]): 5.76 and 3.82 | Curve top (PDO UME053; [5]): 0.62 | pEC50 (PDO UME053; PDO UME053, experiment GEM (GEM alone), single replicates): 8.42

C[C@]12O[C@H](C[C@]1(O)CO)n1c3ccccc3c3c4c(c5c6ccccc6n2c5c31)CNC4=O [Lestaurtinib]
EC50 (CDK5): […] | EC50 (MOB1A;MOB1B): 34 nM | EC50 (AP2A1): 83.7 nM | EC50 (MAP4K5): […]

COc1cc(N2CCC(N3CCN(C)CC3)CC2)ccc1Nc1ncc(Cl)c(Nc2ccccc2P(C)(C)=O)n1 [Brigatinib]
EC50 (ABL1): 3460 nM | pKDapp (ABL1): 5.72 | Kd (ABL1; read-out: KDapp): 1890 nM | EC50 (ULK1): 56.7 nM | pKDapp (ULK1): 7.42 | Kd (ULK1; read-out: KDapp): 37.9 nM | EC50 (JAK2): 4340 nM | pKDapp (JAK2): 5.46 | Kd (JAK2; read-out: KDapp): 3470 nM | EC50 (BUB1): 6990 nM | pKDapp (BUB1): 5.16 | Kd (BUB1; read-out: KDapp): 6990 nM
